Results taken from patent publication US7842672B2, “Phosphonate inhibitors of HCV” (Gilead Sciences, Inc., priority 2006, dated 2010).

Tests used:
HCV NS5b polymerase = HCV NS5b polymerase (Hepatitis C virus genotype 1b, UniProt Q9WMX2); assay: NS5b polymerase assay (HCV IC50 determination); format: biochemical; settings: Concentration tested 200 micromolar
Protocol: Assay Protocol: NS5b polymerase assay (40 μL) was assembled by adding 28 μL polymerase mixture (final concentration: 50 mM Tris-HCl at pH 7.5, 10 mM KCL, 5 mM MgCl2, 1 mM DTT, 10 mM EDTA, 4 ng/μL of RNA template, and 75 nM HCV ? 21 NS5b polymerase) to assay plates followed by 4 μL of compound dilution. The polymerase and compound were pre-incubated at 35° C. for 10 minute before the addition of 8 μL of nucleotide substrate mixture (33P- ? -labeled competing nucleotide at KM and 0.5 mM of the remaining three nucleotides). The assay plates were covered and incubated at 35° C. for 90 min. Reactions were then filtered through 96-well DEAE-81 filter plates via vacuum. The filter plates were then washed under vacuum with multiple volumes of 0.125 M NaHPO4, water, and ethanol to remove unincorporated label. Plates were then counted on TopCount to assess the level of product synthesis over background controls. The IC50 value was determined using Prism fitting program.

[1] = tested on: HCV replicon cells (Huh7); assay: HCV replicon assay (HCV EC50 determination, luciferase readout); format: cell-based; settings: for inhibition at 250 µM: Concentration tested 250 micromolar
Protocol: Replicon cells were seeded in 96-well plates at a density of 8×10^3 cells per well in 100 μL of culture medium, excluding Geneticin. Compound was serially diluted in 100% DMSO and then added to the cells at a 1:200 dilution, achieving a final concentration of 0.5% DMSO and a total volume of 200 μL. Plates were incubated at 37° C. for 3 days, after which culture medium was removed and cells were lysed in lysis buffer provided by Promega's luciferase assay system. Following the manufacturer's instruction, 100 μL of luciferase substrate was added to the lysed cells and luciferase activity was measured in a TopCount luminometer.

Structure (SMILES) | inhibition at 250 µM ([1]; Hepatitis C virus, Huh-7) [%] | also measured
NC(=O)c1ncn([C@@H]2O[C@H](OCP(=O)(O)OP(=O)(O)OP(=O)(O)O)C[C@H]2O)n1 [Compound 9.4, Diphosphate of [5-(3-Carbamoyl-[1,2,4]triazol-1-yl)-4-hydroxy-tetrahydro-furan-2-yloxymethyl]-phosphonic acid] |  | inhibition at 200 µM (HCV NS5b polymerase): 65.5%
CCCCOC(=O)[C@H](C)NP(=O)(CO[C@H]1O[C@@H](n2ccc(N)cc2=O)[C@H](O)[C@@H]1O)N[C@@H](C)C(=O)OCCCC [Compound 32.5] |  | % Inhibition of replicon ([1]; Concentration tested 500 micromolar): 37.5%
CCCCOC(=O)[C@H](C)NP(=O)(CO[C@@H]1C[C@@H](O)[C@H](n2cnc(C(N)=O)n2)O1)N[C@@H](C)C(=O)OCCCC [Compound 9.5, Bis (Alanine-n-butyl ester) phosphonamidate pro drug of [5-(3-carbamoyl-[1,2,4]triazol-1-yl)-4-hydroxy-tetrahydro-furan-2-yloxymethyl]-phosphonic acid] |  | inhibition at 50 µM ([1]; Hepatitis C virus, Huh-7, Concentration tested 50 micromolar): 1.1%
NC(=O)c1ncn(C2OC(OCP(=O)(O)O)CC2O)n1 (stereo not drawn) [Compound 8.3, [5-(3-Carbamoyl-[1,2,4]triazol-1-yl)-4-hydroxy-tetrahydro-furan-2-yloxymethyl]-phosphonic acid] | 18.5 | 
Nc1nc2c(ncn2C2OC(OCP(=O)(O)O)CC2O)c(=O)[nH]1 (stereo not drawn) [Compound 5.2, [5-(2-Amino-6-oxo-1,6-dihydro-purin-9-yl)-4-hydroxy-tetrahydro-furan-2-yloxymethyl]-phosphonic acid] | 27.2 | 
C[C@]1(OCP(=O)(O)O)O[C@@H](n2ccc(=O)[nH]c2=O)[C@H](O)[C@@H]1O [Compound 32.4, ((2R,3S,4R,5R)-5-(2,4-dioxo-3,4-dihydropyrimidin-1(2H)-yl)-3,4-dihydroxy-2-methyl-tetrahydrofuran-2-yloxy)methylphosphonic acid] | 14.8 | 
